Test results from paper PMC12040169 (PLOS Biology, 2025).

assay: in vitro; details: human, hela cells, % viability

Row | Structure (SMILES) | viability at 28.5 h, 10 µM
1 | COc1nccnc1OC1CCN(CCCO)CC1 [CBK084254] | 97.6%
2 | O=C(NC(c1ccccc1)c1ccco1)C1CCN(C(=O)CCC2CCCC2)CC1 (centres unmarked) [CBK059887] | 90.4%
3 | CC(C)(C)NC(=O)c1cccc(N2C(=O)c3ccc(C(=O)O)cc3C2=O)c1 [CBK287123] | 86.8%
4 | O=C(c1cncnc1)N1CCC(Cc2ccccc2)CC1 [CBK200212] | 92.8%
5 | O=C(NC(c1ccc2ccccc2n1)c1cccs1)C1CCNCC1 (centres unmarked) [CBK148331] | 98.9%
6 | CS(=O)(=O)N1CC2(CCN(CCc3ccccc3)CC2)c2ccccc21 [CBK084015] | 88.3%
7 | CCn1nccc1C(=O)N1CCC(c2cc3c(C)cccc3cn2)CC1 [CBK282234] | 92.4%
8 | CC(=O)Nc1cccc(-c2cnc(Nc3ccc(N4CCOCC4)cc3)c3nccn23)c1 [CBK091235] | 99.9%
9 | CNC1CCC2(c3ccc(OC)c(OC)c3)CCN(C)C2C1 (centres unmarked) [CBK059586C] | 87.3%
10 | O=C(C1CCCCC1)N1CC[C@H](c2nnc(-c3cccnc3)o2)C1 [CBK289412] | 103%
11 | Cc1cn2c(=O)c3ncn([C@H]4C[C@@H](O)[C@@H](CO)O4)c3nc2[nH]1 [CBK201320] | 86.6%
12 | CC(=O)CCCCC(=O)N1CCC2(CC1)CC(=O)c1cc(C)c(C)cc1O2 [CBK156497] | 106%
13 | C#CCNC(=O)C1CCN(c2nc3ccccc3n2C)CC1 [CBK283956] | 89.7%
14 | O=C(Oc1cccc(-c2cnc3ccccc3n2)c1)c1cccc(S(=O)(=O)N2CCOCC2)c1 [CBK262096] | 89.3%
15 | CC(=O)Nc1ccc(CCOc2nccnc2/C=C/c2ccccc2)cc1 [CBK106880] | 94.1%
16 | CC(C)(C)OC(=O)NC1CCC(NCc2ccncc2)CC1 (centres unmarked) [CBK056688] | 98.8%
17 | O=C(O)CCNC(=O)/C(=C/c1ccc(Cl)cc1)NC(=O)c1ccccc1 [CBK300484] | 86.5%
18 | C=CCN1C(=O)CC2(C1=O)C(=O)N(CC)c1ccc(F)cc12 (centres unmarked) [CBK075316] | 115%
19 | CCC(C)NC(=O)Cn1cccc2cc(C3CCCNC3)nc1-2 (centres unmarked) [CBK285087] | 98.2%
20 | CC(c1ccc(Cl)cc1Cl)N(C)C(=O)Cn1cnc2c1CCCC2 (centres unmarked) [CBK306387] | 88%
21 | Cc1nn(C)cc1C(C)NC(=O)c1cn2cccc(C)c2n1 (centres unmarked) [CBK281731] | 92.1%
22 | Cc1cc(CNC(=O)N2CCCC(CO)C2)no1 (centres unmarked) [CBK156028] | 94.5%

Row | Structure (SMILES) | viability at 28.5 h, 10 µM
23 | CC(=O)NC(CSc1cc(C)nc2ccc(F)cc12)C(=O)O (centres unmarked) [CBK286815] | 91.7%
24 | Cc1nc2c(C(=O)N3CCOCC3)cnn2c(C)c1Cc1ccccc1 [CBK162201] | 113%
25 | COC(=O)c1ccc(N2CCOCC2)c(NC(=O)c2cccnc2)c1 [CBK270257] | 95.9%
26 | COCCn1c(Cc2ccccc2)nnc1SCc1ccc2ccccc2c1 [CBK265985] | 96.6%
27 | COc1cc2nc(NC(=O)C3COc4ccccc4O3)sc2cc1OC (centres unmarked) [CBK287702] | 109%
28 | COc1ccc(C)cc1S(=O)(=O)NCCO [CBK267881] | 98.4%
29 | O=C(OCc1ccc([N+](=O)[O-])cc1)C1CCN(S(=O)(=O)c2cccc3cccnc23)CC1 [CBK264430] | 115%
30 | CCN(CC)CCNC(=O)c1cccc(Nc2cncc(-c3ccc(O)cc3)n2)c1 [CBK122671] | 96.9%
31 | CCOC(=O)N1CCC(NC(=O)N(CCCN(C)C)Cc2ccc3c(c2)OCO3)CC1 [CBK159231] | 91%
32 | COC(=O)C#CCNc1cc(Cl)ccc1Cl [CBK025852] | 57.6%
33 | OC(CNCc1ccc2c(c1)OCO2)COc1ccc(SC(F)(F)F)cc1 (centres unmarked) [CBK074691] | 120%
34 | Cc1nc2nc(-c3ccc(F)cc3F)cn2nc1C [CBK284564] | 90.3%
35 | NC(=O)C1(Cc2ccc(-c3ccccc3)cc2)CCN(C(=O)CCc2ccccc2)CC1 [CBK285772] | 102%
36 | C/C(=N/NC(=O)C[N+](C)(C)C)c1nn(-c2ccc(Cl)cc2)nc1C [CBK008258C] | 100%
37 | c1cc(-c2ccc(OC3CCNCC3)cc2)c2cccnc2c1 [CBK103528T] | 92.7%
38 | Cc1cccc(NC(=O)NCCCn2c(-c3ccncc3)nc3cccnc32)c1 [CBK288580] | 97.5%
39 | COc1ccc(-n2c(=O)[nH]cc(C(=O)Nc3cccc(Cl)c3C)c2=O)cc1 [CBK287549] | 118%
40 | Cc1cc(C)nc(Nc2ccc(C3CCCN(C(=O)c4c(C)oc5c4CCCC5)C3)nc2)n1 (centres unmarked) [CBK285988] | 109%
41 | CC(=O)N1CCN(C(=O)C[C@@H]2C[C@@H](C(C)C)[C@H](CC#N)C=C2C)CC1 [CBK289214] | 103%
42 | COc1ccc(C2CC(c3c(-c4ccccc4)c4cc(Cl)ccc4[nH]c3=O)=NN2C(=O)CCC(=O)O)cc1OC (centres unmarked) [CBK296128] | 103%
43 | O=C(CCc1ccccc1)N/N=C/c1cc2c(cc1[N+](=O)[O-])OCO2 [CBK261221] | 111%
44 | O=S(=O)(Nc1ccc(-c2nc3cccnc3s2)cc1)c1ccccc1 [CBK287547] | 116%

Row | Structure (SMILES) | viability at 28.5 h, 10 µM
45 | COc1cc(OC)c(NC(=O)c2c(-c3ccccc3)noc2C)cc1Cl [CBK268167] | 101%
46 | O=C1CN(C(=O)NCCc2c[nH]c3ccccc23)CCN1 [CBK155866] | 95.8%
47 | CN(C)CCN(C)c1cncc(-c2cccc(N(C)C)c2)n1 [CBK065659] | 100%
48 | CSc1ccccc1C(=O)NCCN(C)C [CBK269757] | 90.9%
49 | FC(F)(F)Oc1ccc(-c2c[nH]c([C@@H]3COCCN3C3CCNCC3)n2)cc1 [CBK289312] | 97.8%
50 | Nc1cccc(-c2cc(N3CCCC3CO)n3nccc3n2)c1 (centres unmarked) [CBK037049] | 88.6%
51 | O=C(C1=C(O)C(=O)N(CCCn2ccnc2)C1c1ccncc1)c1ccccc1 (centres unmarked) [CBK264527] | 91.6%
52 | COc1ccc2[nH]c3c(c2c1)CCN(C(=O)CNCC(=O)O)C31CCN(CCOc2ccccc2)C1 (centres unmarked) [CBK082782T] | 114%
53 | N#Cc1[nH]nnc1-c1ccc(OC(F)(F)F)cc1 [CBK017386] | 95.1%
54 | c1ccc(-n2cc(-c3cncn3CCCN3CCCCC3)cn2)cc1 [CBK281465] | 92.4%
55 | O=C(CC1S\C(=N/N=C/C=C/c2ccccc2)N=C1O)Nc1ccc(C(=O)O)cc1 (centres unmarked) [CBK263711] | 101%
56 | CCCc1nn(CC(=O)NC(C)(C)C)c(=O)c2cc3ccsc3n12 [CBK284148] | 83.7%
57 | CS(=O)(=O)N(Cc1ccc(Cl)cc1)c1ccc(C(=O)N2CCC(C(N)=O)CC2)cc1 [CBK265327] | 89.7%
58 | CN(C)CCN1CCN(c2cncc(-c3cccc(C(=O)O)c3)n2)CC1 [CBK065443] | 104%
59 | c1ccc(-c2nc(C3CC3)n3ccccc23)cc1 [CBK149257] | 94.1%
60 | CCCCCc1nnc(Nc2nc(C)cc(C)n2)[nH]1 [CBK288155] | 95.4%
61 | COC(CNC(=O)N(C)Cc1nncn1C(C)C)c1cccs1 (centres unmarked) [CBK306556] | 90.8%
62 | O=C(O)CCNC1CC(=O)N(Cc2ccccc2)C1=O (centres unmarked) [CBK287246] | 99%
63 | O=C(NCCc1cccs1)N1CCC2(CC1)OCCc1c2[nH]c2ccccc12 [CBK047129] | 85.4%
64 | CS(=O)(=O)c1ccc(Cn2cc(CN3CCC(Sc4ccccn4)CC3)nn2)cc1 [CBK149475] | 98.4%
65 | Cc1cc(C)nc(NC2=NCCN2C(=S)Nc2ccccc2)n1 [CBK266481] | 95.7%
66 | CC(=O)Nc1cccc(-n2ncc(-c3cccnc3)n2)c1 [CBK112811] | 98.7%

Row | Structure (SMILES) | viability at 28.5 h, 10 µM
67 | O=C(Cn1ccc(=O)[nH]c1=O)NCC1(Sc2ccccc2)CC1 [CBK306242] | 110%
68 | O=[N+]([O-])c1ccc(Oc2cccc(Cl)c2Cl)c(C(F)(F)F)c1 [CBK002594] | 82.8%
69 | CN(C)CCNC(=O)c1ccc(-c2cnc3[nH]c(=O)n(CC4CC4)c3n2)cc1 [CBK064578] | 94.6%
70 | O=C(N/N=C/c1ccncc1)C1CC1C(=O)N/N=C/c1ccncc1 (centres unmarked) [CBK261115] | 90.2%
71 | CC1CCN(CC[C@H]2CCCN2S(=O)(=O)c2cccc(O)c2)CC1 [CBK074118C] | 112%
72 | O=C(NCCN1CCOCC1)c1sc2cc(F)ccc2c1Cl [CBK018212] | 120%
73 | CCCC/C=C/c1cn2ccnc2c(N2CCN(c3ccccn3)CC2)n1 [CBK066224] | 94%
74 | Cc1nn2c(c1-c1ccccc1)NC(=O)CC2C(=O)O (centres unmarked) [CBK287118] | 95.3%
75 | O=C(O)C1C2C=CC(C2)C1C(=O)N1CCc2ccccc21 (centres unmarked) [CBK286537] | 85.2%
76 | Cc1cc(NC(=O)CC(C)(C)C)nc2c1c(=O)oc1ccccc12 [CBK287444] | 101%
77 | Oc1ccccc1CNC1(Cc2cc(-c3ccc(F)cc3)on2)COC1 [CBK289655] | 95.8%
78 | CN1CCN(NC(=O)CSc2ccccc2)CC1 [CBK268142] | 107%
79 | CC(=O)Nc1ccc2nc(Nc3nc4c(F)cccc4s3)sc2c1 [CBK287475] | 89.8%
80 | Nc1ncnc(NCCCn2ccnc2)c1[N+](=O)[O-] [CBK267312] | 93.5%
81 | O=S(=O)(Nc1cccc(-c2cnco2)c1)c1ccc(Cl)c(Cl)c1 [CBK067117] | 80.9%
82 | COc1cccc(Cc2cccc(C3CCN(C(=O)Cc4c[nH]c5ccccc45)CC3)n2)c1 [CBK286145] | 93.1%
83 | COc1ccc(C2c3cc(OC)c(OC)cc3CC(=O)N2c2ccc(C(=O)O)cc2)cc1 (centres unmarked) [CBK296074] | 93.6%
84 | C[C@@H]1CN(C(=O)OCCc2ccsc2)C[C@H](C)O1 [CBK200417] | 89.3%
85 | COc1ccccc1-c1nnc(SCC(=O)N2CCN(c3ccccc3)CC2)[nH]1 [CBK270105] | 95.6%
86 | Nc1nnc(SCC(=O)N(Cc2ccccc2F)C2CC2)s1 [CBK295179] | 84.3%
87 | CCC(C)c1nnc(C2(c3ccc(Br)cc3)CCOCC2)o1 (centres unmarked) [CBK306229] | 99.7%
88 | O=C(N1CCC=C(F)C1)C12CCOCC1CN(c1ncccn1)C2 (centres unmarked) [CBK304264] | 91.3%

same assay, conditions: human, hela cells, % viability, bulk resorufin, single well

Row | Structure (SMILES) | viability at 28.5 h, 10 µM
89 | COc1cccc2c1OCCC2CNCCCc1ccccc1 (centres unmarked) [CBK007716] | 91.8%
